US20150112057A1, “NOVEL CRYSTALLINE CEFOPERAZONE INTERMEDIATE” (DSM Sinochem Pharmaceuticals Netherlands B.V., priority 2011, published 2015)

Legend:
[1] = Chemical degradation of 7-TMCA to 5-mercapto-1-methyltetrazole during dissolution and enzymatic condensation; assay type: physicochemical; conditions: during the dissolution step, titration with aqueous NaOH 5M
Protocol: (§1) The reactions were followed by quantitative HPLC analysis. The retention factors of 7-TMCA, HPGM, HPG and 5-mercapto-1-methyltetrazole were calculated using standards; the retention factor of D-7-(4-hydroxyphenylacetamido)-3-(1-methyl-1H-tetrazol-5-yl)thiomethylcephem-4-carboxylic acid was deducted based on mass balance in the first experiments and subsequently calculated using standard; the retention factor of cefatrizine was deducted on mass balance.
7-Amino-3-(1-methyl-1H-tetrazol-5-ylthiomethyl)-3-cephem-4-carboxylic acid (7-TMCA; 5 g) was added to distilled water (38 g) and cooled to 3° C. The mixture was stirred at 400 rpm and the pH was brought to 9.0 with aqueous NaOH (5M) whereafter the remainder of the reaction was carried out at pH 8.8. After 60-80 min, the suspension was filtered. The filtrate, containing 4.1 g of 7-TMCA, was place back in the reactor and immobilized penicillin G acylase mutant 1 (3.5 g, see Materials and Methods) was added and to the resulting mixture a solution of D-4-hydroxyphenylglycine methylester (HPGM) was dropped at speed of 7 mL/h by a syringe pump (dosing time 2 h). This solution was prepared by dissolving HPGM (4.0 g, 1.7 equiv.) in water (6.4 g) and H2SO4 25% (4.25 g in water). The enzymatic reaction was followed by analytical HPLC (see Materials and Methods) and stopped at the end of HPGM addition, by enzyme filtration. […]

[2] = Chemical hydrolysis of HPGM to HPG (chemical blank, no enzyme); assay type: physicochemical; conditions: water pH 8.7, 2° C.
Protocol: as §1
During the enzymatic condensation of 7-TMCA and HPGM the latter compound was hydrolyzed to HPG. […] Two reactions were started in parallel at 2° C. […] In one of the reactors immobilized penicillin G acylase mutant 1 (5 g) was added and the two reactions were monitored by analytical HPLC.

[3] = target: T1, immobilized penicillin G acylase mutant 1 (Escherichia coli, UniProt P06875, F313A/F749L/S29L/V218E/V437L); assay: Enzymatic hydrolysis of HPGM to HPG; assay type: biochemical; conditions: water pH 8.7, 2° C., immobilized penicillin G acylase mutant 1 (5 g)
T1 construct: mutations V11A, A:S3L, A:V192E, B:F24A, B:V148L and B:F460L; made in house
Text: The production, isolation and purification of wild type and mutant penicillin G acylases may be carried out as described in WO 1996/005318 and WO 2003/055998. Alternatively, genes encoding mutant penicillin G acylases may be obtained by gene synthesis. Production of the mutant penicillin G acylase was achieved by cloning the genes encoding mutant penicillin G acylases into an appropriate expression vector, transforming a suitable host such as Escherichia coli with said vector and culturing the transformed host under conditions suitable for the production of the mutant penicillin G acylases and recovery and purification of the mutants was carried out as described in WO 2010/072765. […]
as §1
During the enzymatic condensation of 7-TMCA and HPGM the latter compound was hydrolyzed to HPG. […] In one of the reactors immobilized penicillin G acylase mutant 1 (5 g) was added and the two reactions were monitored by analytical HPLC.

SMILES | amount of 5-mercapto-1-methyltetrazole (degradation product of 7-TMCA) [1] | HPGM hydrolyzed in the chemical blank ([2]; 20 h) [%] | formation of HPG from HPGM in the chemical blank ([2]; within 2 h) | time to complete conversion of HPGM to HPG by the enzyme [3] [min]
Cn1nnnc1SCC1=C(C(=O)O)N2C(=O)[C@@H](N)[C@H]2SC1 [Example 7-TMCA, 7-amino-3-(1-methyl-1H-tetrazol-5-ylthiomethyl)-3-cephem-4-carboxylic acid] | not detectable |  |  | 
COC(=O)[C@H](N)c1ccc(O)cc1 [HPGM, D-4-hydroxyphenylglycine methylester] |  | 9 | no HPG was recorded | ≤ 5
